Measured values taken from patent US11753634B2, “Method and apparatus for applying heat to living tissue” (NATIONAL TAIWAN UNIVERSITY, priority 2019, dated 2023).
Where two headings read alike, the source gives them in different places.

Tests used:
[1] = test system: human pancreatic cancer cells (PANC-1); experiment: cells
Excerpt: In addition, for the portion of the living tissue, the human pancreatic cancer cells (PANC-1) are used instead of the neural cells as an example for illustration. Furthermore, the living pancreatic cancer cells are also placed in the culture solution of petri dish in order to perform the heat treatment method of the present invention.
In addition, for the portion of the living tissue, the human pancreatic cancer cells (PANC-1) are used as an example for illustration. Furthermore, the living pancreatic cancer cells are also placed in the culture solution of petri dish in order to perform the heat treatment method of the present invention.
The control group refers to the comparison group without the heat treatment according to the method of the present invention.

[2] = test system: human neural cells (SH-SY5Y); experiment: cell viability of human neural cells (SH-SY5Y) with/without cyclic heat treatment; conditions: hydrogen peroxide processing

O=C(/C=C/c1ccc(O)c(O)c1)O[C@@H]1C[C@](O)(C(=O)O)C[C@@H](O)[C@H]1O [CGA, chlorogenic acid]
viability at 200 µM ([1]; PANC-1, read-out: cell viability, PANC-1, 200 μM CGA, ten times of heat treatment, 43.5° C. / approximately 36° C. (FIG. 10B)): 53%
viability at 200 µM ([1]; PANC-1, read-out: cell viability, PANC-1, 200 μM CGA, without the heat treatment (FIG. 10B)): 88%

Nc1ccn([C@@H]2O[C@H](CO)[C@@H](O)C2(F)F)c(=O)n1 [Gem, gemcitabine]
viability at 5 µM ([1]; PANC-1, read-out: cell viability, PANC-1, 5 μM Gem, ten times of heat treatment, 43.5° C. / approximately 36° C. (FIG. 11)): 55%
viability at 5 µM ([1]; PANC-1, read-out: cell viability, PANC-1, 5 μM Gem, without the heat treatment (FIG. 11)): 90%

OO [hydrogen peroxide]
cell viability ([2]; control group without the heat treatment (FIG. 5A, 5B)): 55%
cell viability ([2]; eight times of heat treatment, max 40.9° C. / min 39.4° C. (FIG. 5A)): 70%
cell viability ([2]; eight times of heat treatment, max 42.0° C. / min 40.3° C. (FIG. 5B)): 82%
